These results are taken from paper PMC5592639 (ACS combinatorial science, 2016).

The structures appear in SMILES notation.

By EC50 is commonly meant the midpoint of the concentration-response curve.

Type in all cases: cell-based
Test [1] has as its system normal human fibroblasts NHFB. Nature of the test: Cytotoxicity against normal human fibroblasts. The note with it: Fibroblast.
For test [2], the system named is H460TaxR (paclitaxel-resistant human non-small cell lung carcinoma cells). Nature of the test: Cytotoxicity against H460TaxR. The note with it: H460/TaxR.
The test system of test [3] is H460 (human non-small cell lung carcinoma cells). The experiment in a line: Cytotoxicity against H460. The note with it: NCI-H460.

On to `CC(=O)O[C@H]1C(=O)[C@@]2(C)[C@H]([C@H](OC(=O)c3ccccc3)[C@]3(O)C[C@H](OC(=O)[C@H](O)[C@@H](NC(=O)c4ccccc4)c4ccccc4)C(C)=C1C3(C)C)[C@]1(OC(C)=O)CO[C@@H]1C[C@@H]2O` [PTX, paclitaxel], for which the figures for the EC50 in test [1], in test [2] and in test [3] were 50 ± 30 nM, 800 ± 400 nM and 6 ± 2 nM, respectively.
